The source made the active and inactive calls. No cut-off for these calls is given here.
Experiments:
Rattus norvegicus [1] = test: Hepatoprotective activity in Rattus norvegicus Wistar albino (rat) assessed as reduction in CCl4-induced lymphocytic infiltration at 50 mg/kg, po administered QD for 6 days measured on day 8 by hematoxylin and eosin staining-based microscopic analysis; assay type: functional, organism-based; parameters: dose 50 mg/kg
Rattus norvegicus [2] = test: Hepatoprotective activity in Rattus norvegicus Wistar albino (rat) assessed as reduction in CCl4-induced increase in SGOT level at 50 mg/kg, po administered QD for 6 days measured on day 8 by colorimetric analysis relative to ocntrol; assay type: functional; parameters: scale not given: the % may be the effect or the level left
Rattus norvegicus [3] = test: Hepatoprotective activity in Rattus norvegicus Wistar albino (rat) assessed as reduction in CCl4-induced increase in SGPT level at 50 mg/kg, po administered QD for 6 days measured on day 8 by colorimetric analysis relative to control; assay type: functional; parameters: scale not given: the % may be the effect or the level left
Rattus norvegicus [4] = test: Hepatoprotective activity against CCl4-induced toxicity in Rattus norvegicus Wistar albino (rat) assessed as clear central vein at 50 mg/kg, po administered QD for 6 days measured on day 8 by hematoxylin and eosin staining-based microscopic analysis; assay type: functional, organism-based; parameters: dose 50 mg/kg
Rattus norvegicus [5] = test: Hepatoprotective activity against CCl4-induced toxicity in Rattus norvegicus Wistar albino (rat) assessed as normal portal triad at 50 mg/kg, po administered QD for 6 days measured on day 8 by hematoxylin and eosin staining-based microscopic analysis; assay type: functional, organism-based; parameters: dose 50 mg/kg
Rattus norvegicus [6] = test: Hepatoprotective activity in Rattus norvegicus Wistar albino (rat) assessed as reduction in CCl4-induced increase in alkaline phosphatase level at 50 mg/kg, po administered QD for 6 days measured on day 8 relative to control; assay type: functional; parameters: scale not given: the % may be the effect or the level left
Rattus norvegicus [7] = test: Hepatoprotective activity in Rattus norvegicus Wistar albino (rat) assessed as reduction in CCl4-induced necrosis at 50 mg/kg, po administered QD for 6 days measured on day 8 by hematoxylin and eosin staining-based microscopic analysis; assay type: functional, organism-based; parameters: dose 50 mg/kg
Rattus norvegicus [8] = test: Hepatoprotective activity against CCl4-induced toxicity in Rattus norvegicus Wistar albino (rat) assessed as normal parenchyma at 50 mg/kg, po administered QD for 6 days measured on day 8 by hematoxylin and eosin staining-based microscopic analysis; assay type: functional, organism-based; parameters: dose 50 mg/kg
Rattus norvegicus [9] = test: Hepatoprotective activity against CCl4-induced toxicity in Rattus norvegicus Wistar albino (rat) assessed as total albumin level at 50 mg/kg, po administered QD for 6 days measured on day 8 (reference value: 2.33 +/- 0.18 g/dl); assay type: functional
Rattus norvegicus [10] = test: Hepatoprotective activity in Rattus norvegicus Wistar albino (rat) assessed as reduction in CCl4-induced hepatocyte injury at 50 mg/kg, po administered QD for 6 days measured on day 8 by hematoxylin and eosin staining-based microscopic analysis; assay type: functional, organism-based; parameters: dose 50 mg/kg
Rattus norvegicus [11] = test: Hepatoprotective activity in Rattus norvegicus Wistar albino (rat) assessed as increase in CCl4-induced reduction in total protein level at 50 mg/kg, po administered QD for 6 days measured on day 8 relative to control; assay type: functional; parameters: scale not given: the % may be the effect or the level left
Rattus norvegicus [12] = test: Hepatoprotective activity in Rattus norvegicus Wistar albino (rat) assessed as reduction in CCl4-induced fatty accumulation at 50 mg/kg, po administered QD for 6 days measured on day 8 by hematoxylin and eosin staining-based microscopic analysis; assay type: functional, organism-based; parameters: dose 50 mg/kg

COc1c2ccoc2c(OC/C=C(\C)CC2C=C(C)C(=O)O2)c2oc(=O)ccc12 (configuration not stated) [FEROLACTONE]
Activity (Rattus norvegicus [1]): Active
Activity (Rattus norvegicus [2]): 43.44%
Activity (Rattus norvegicus [3]): 39.63%
Activity (Rattus norvegicus [4]): Active
Activity (Rattus norvegicus [5]): Active
Activity (Rattus norvegicus [6]): 41.16%
Activity (Rattus norvegicus [7]): Active
Activity (Rattus norvegicus [8]): Active
Activity (Rattus norvegicus [9]): 3.44 g/dL
Activity (Rattus norvegicus [10]): Active
Activity (Rattus norvegicus [11]): 36.15%
Activity (Rattus norvegicus [12]): Active

— ChEMBL document CHEMBL3044793, “Antihepatotoxic activity of ferolactone, a new furanocoumarin from Feronia limonia” (2012)
